Assay results as given in patent publication US11959083B2, “Immunosuppression-reverting oligonucleotides inhibiting the expression of CD39” (Secarna Pharmaceuticals GmbH & Co. KG, priority 2016, dated 2024).
l = locked nucleic acid (LNA); d = 2'-deoxy (DNA)

Assays:
hCD39 mRNA = test: IC50 determination / concentration-dependent hCD39 mRNA knockdown in HDLM-2 cells; format: cell-based, human; conditions: for mRNA inhibition: HDLM-2, 3 days; for IC50: hCD39 mRNA, 3 days
Outline: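 Antisense oligonucleotides applied to HDLM-2 cells for 3 days, titrated 10 μM down to 4.5 nM. hCD39 mRNA normalized to HPRT1 and expressed as residual level relative to untreated cells (100); mean of triplicates, IC50 from concentration-response.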

hCD39 protein = hCD39 protein expression in primary human CD8+ and CD4+ T cells after oligonucleotide removal (flow cytometry); format: cell-based; conditions: 10 μM for six days with anti-CD3, compared to untreated control cells
Experimental: Thereafter, oligonucleotides and anti-CD3 were removed and hCD39 protein expression was analyzed by flow cytometry three, six, and eleven days after oligonucleotide removal. CD39 protein expression is depicted as mean fluorescence intensity (MFI) and was calculated by subtracting the MFI of the unspecific isotype control from the MFI of CD39. Depicted is the mean of duplicate wells+/−SD.
A04040H had shown very potent activity in suppressing hCD39 expression on mRNA- and protein-level in human cancer cell lines. In the next step, its activity in primary human T cells was investigated. Furthermore, the persistence of the effects after antisense oligonucleotide removal was examined. Therefore, CD8^+ and CD4^+ T cells were isolated from peripheral blood and activated for a total treatment time of six days with anti-CD3 in the presence of 10 μM of the hCD39 specific antisense oligonucleotide A04040H (black column) or the control oligonucleotide S6 (white column), which is not complementary to any human mRNA. […] Thereafter, oligonucleotides were removed and hCD39 protein expression was analyzed three, six, and eleven days after oligonucleotide removal by flow cytometry (FIG. 9).

human CD8+ T cells = test: Proliferation and absolute cell numbers of human CD8+ T cells in presence or absence of extracellular ATP; format: cell-based; conditions: 5 μM oligonucleotide 5 days or 20 μM ARL67156 24 h
Experimental: FIG. 12A-12C depict human CD8^+ T cells which were labelled with cell proliferation dye, activated with anti-CD3 and treated with 5 μM of the antisense oligonucleotide A04040H (black column) or the control oligonucleotide S6 (white column) for a total treatment time of 5 days. In the vehicle control (striped column), cells were activated with anti-CD3 only. Subsequently, 400 μM of ATP or vehicle were added to cells on day 3 and day 4 after start of oligonucleotide treatment. Furthermore, as additional control, the small molecular CD39-inhibitor ARL67156 trisodium salt was added at 20 μM to cells on day 4, for an incubation time of 24 h (checked column). On day 5 after start of oligonucleotide treatment, (FIG. 12A) CD39 protein expression, (FIG. 12B) proliferation and (FIG. 12C) absolute cell numbers of CD8^+ T cells were analyzed using Flow Cytometry. Depicted is the mean of triplicate wells+/−SD.
In cancer, ATP is released from tumor cells for example after cell death induced by chemotherapy or radiation therapy. Since the CD39-CD73 axis plays an important role for T cell function the effects of A04040H on T cell proliferation in the presence or absence of extracellular ATP were investigated. Human CD8^+ T cells were labelled with cell proliferation dye, activated with anti-CD3 and treated with 5 μM of the antisense oligonucleotide A04040H or the control oligonucleotide S6 for a total treatment time of 5 days. In the vehicle control, cells were activated with anti-CD3 only. Subsequently, 400 μM of ATP or vehicle were added to cells on day 3 and day 4 after start of oligonucleotide treatment. Furthermore, as additional control, the small molecular CD39-inhibitor ARL67156 trisodium salt was added at 20 μM to cells on day 4 for an incubation time of 24 h. On day 5 after start of oligonucleotide treatment, CD39 protein expression, proliferation, and absolute cell numbers of CD8^+ T cells were analyzed using Flow Cytometry.

[1] = absence of extracellular ATP, vs vehicle
[2] = supplementation with 400 μM of ATP

“+G*+T*+T*T*G*T*G*T*G*A*G*A*G*C*+T*+T (antisense GTTTGTGTGAGAGCTT; sugars from the 5' end l3 d11 l2, all phosphorothioate, methylation of C not given here) [A04040H]” showed a mRNA inhibition (hCD39 mRNA; 0.45 nM, Table 12) of 0.00%, a mRNA inhibition (hCD39 mRNA; 1.3 nM, Table 12) of 0.00% and a mRNA inhibition (hCD39 mRNA; 4 nM, Table 12) of 0.00%. For the same substance, the mRNA inhibition (hCD39 mRNA; 0.0045 μM, Table 8) was 22.64%, the mRNA inhibition (hCD39 mRNA; 0.0045 μM, Table 9) was 12.51% and the mRNA inhibition (hCD39 mRNA; 12 nM, Table 12) was 0.00%. The mRNA inhibition (hCD39 mRNA; 0.013 μM, Table 8) was 40.51%, the mRNA inhibition (hCD39 mRNA; 0.013 μM, Table 9) was 36.68% and the mRNA inhibition (hCD39 mRNA; 0.04 μM, Table 8) was 62.42%. The mRNA inhibition (hCD39 mRNA; 0.04 μM, Table 9) was 74.68%, the mRNA inhibition (hCD39 mRNA; 40 nM, Table 12) was 27.56% and the mRNA inhibition (hCD39 mRNA; 110 nM, Table 12) was 69.84%. The mRNA inhibition (hCD39 mRNA; 0.12 μM, Table 8) was 88.40%, the mRNA inhibition (hCD39 mRNA; 0.12 μM, Table 9) was 93.14% and the mRNA inhibition (hCD39 mRNA; 330 nM, Table 12) was 91.26%. For the same substance, the mRNA inhibition (hCD39 mRNA; 0.4 μM, Table 8) was 95.94%, the mRNA inhibition (hCD39 mRNA; 0.4 μM, Table 9) was 98.42% and the mRNA inhibition (hCD39 mRNA; 1000 nM, Table 12) was 97.06%. The mRNA inhibition (hCD39 mRNA; 1.1 μM, Table 8) was 98.54%, the mRNA inhibition (hCD39 mRNA; 1.1 μM, Table 9) was 99.38% and the mRNA inhibition (hCD39 mRNA; 3.3 μM, Table 8) was 99.01%. The mRNA inhibition (hCD39 mRNA; 3.3 μM, Table 9) was 99.32%, the mRNA inhibition (hCD39 mRNA; 10 μM, Table 8) was 98.98% and the mRNA inhibition (hCD39 mRNA; 10 μM, Table 9) was 99.57%. The “maximal target inhibition (hCD39 mRNA)” value (hCD39 mRNA; HDLM-2 cells, compared to untreated cells, first IC50 determination) was 99%, the IC50 (hCD39 mRNA; HDLM-2 cells, first screening round (Table 8)) was 0.0253 µM and the IC50 (hCD39 mRNA; HDLM-2 cells, second screening round (Table 9)) was 0.0215 µM. For the same substance, the IC50 (hCD39 mRNA; HDLM-2 cells, third screening round (Table 12)) was 0.0528 µM, the “hCD39 protein expression (MFI) after oligonucleotide removal” value (hCD39 protein) was “significantly suppressed hCD39 protein expression for a duration of at least six days after removal” and the “absolute cell numbers of CD8+ T cells” value (human CD8+ T cells; [1]) was “no differences”. For the same substance, the “proliferation of CD8+ T cells” value (human CD8+ T cells; [1]) was “no differences”, the “absolute numbers of CD8+ T cells” value (human CD8+ T cells; [2]) was “not altered” and the “proliferation of CD8+ T cells” value (human CD8+ T cells; [2]) was “not reduced”.
